Assays:
[1] = molecular target: T1, Cathepsin S (Homo sapiens, UniProt P25774); assay: Inhibition of cathepsin S in human JY cells assessed as accumulation of invariant chain p10li after 24 hrs by Western blot analysis; type: cell-based
[2] = molecular target: T1, Cathepsin S; assay: Inhibition of human recombinant cathepsin S expressed in baculovirus expression sytem after 15 mins by FRET assay

T1 sequence (P25774 whole entry): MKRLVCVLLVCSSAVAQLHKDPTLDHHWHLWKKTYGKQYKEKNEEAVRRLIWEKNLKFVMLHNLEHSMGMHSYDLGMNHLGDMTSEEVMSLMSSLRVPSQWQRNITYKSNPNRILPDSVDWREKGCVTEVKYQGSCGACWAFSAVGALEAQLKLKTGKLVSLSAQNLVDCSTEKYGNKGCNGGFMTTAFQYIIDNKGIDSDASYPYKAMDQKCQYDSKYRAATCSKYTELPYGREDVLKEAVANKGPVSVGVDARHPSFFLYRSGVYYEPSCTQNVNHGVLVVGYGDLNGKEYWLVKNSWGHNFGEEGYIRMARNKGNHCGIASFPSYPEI

Row | SMILES | IC50 [1] [nM] | IC50 [2] [nM]
1 | CS(=O)(=O)N1CCc2c(c(-c3ccc(C(F)(F)F)c(SCCNC(=O)Cc4ccccc4)c3)nn2CC(O)CN2CCC(N3CCCC3=O)CC2)C1 (stereo unspecified) | > 10000 | 
2 | CS(=O)(=O)N1CCc2c(c(-c3ccc(C(F)(F)F)c(SCC(=O)N4CCCCC4)c3)nn2CC(O)CN2CCC(c3ccccn3)CC2)C1 (stereo unspecified) | 1540 | 
3 | CS(=O)(=O)N1CCc2c(c(-c3ccc(C(F)(F)F)c(SCC(=O)NCc4ccccc4)c3)nn2CCCN2CCC(N3CCCC3=O)CC2)C1 | 10000 | 
4 | CS(=O)(=O)N1CCc2c(c(-c3ccc(C(F)(F)F)c(SCC(=O)N4CCCCC4)c3)nn2CCCN2CCC(N3CCCC3=O)CC2)C1 | 3920 | 70
5 | CC1CCCN1C(=O)CSc1cc(-c2nn(CCCN3CCC(N4CCCC4=O)CC3)c3c2CN(S(C)(=O)=O)CC3)ccc1C(F)(F)F (stereo unspecified) | 6000 | 
6 | CC1CCN(C(=O)CSc2cc(-c3nn(CCCN4CCC(N5CCCC5=O)CC4)c4c3CN(S(C)(=O)=O)CC4)ccc2C(F)(F)F)CC1 | 8000 | 210
7 | CS(=O)(=O)N1CCc2c(c(-c3ccc(C(F)(F)F)c(SCC(=O)N4CCCC4)c3)nn2CCCN2CCC(N3CCCC3=O)CC2)C1 | 1970 | 
8 | C[C@H]1CCCCN1CC(O)Cn1nc(-c2ccc(C(F)(F)F)c(SCC(=O)N3CCOCC3)c2)c2c1CCN(S(C)(=O)=O)C2 (mixture of isomers) | 10000 | 300
9 | CCN1CCc2c(c(-c3ccc(C(F)(F)F)c(SCC(=O)N4CCCC4)c3)nn2CC(O)CN2CCC(c3ccccn3)CC2)C1 (racemic) |  | 250
10 | O=C(CSc1cc(-c2nn(CC(O)CN3CCC(c4ccccn4)CC3)c3c2CNCC3)ccc1C(F)(F)F)N1CCOCC1 (racemic) | 1680 | 
11 | CS(=O)(=O)N1CCc2c(c(-c3ccc(C(F)(F)F)c(SCC(=O)N4CCOCC4)c3)nn2CC(O)CN2CCC(c3ccccc3F)CC2)C1 (racemic) | 3130 | 10
12 | CS(=O)(=O)N1CCc2c(c(-c3ccc(C(F)(F)F)c(SCC(=O)N4CCC(O)C4)c3)nn2CCCN2CCC(N3CCCC3=O)CC2)C1 (racemic) | 520 | 
13 | COc1ccccc1C1CCN(CC(O)Cn2nc(-c3ccc(C(F)(F)F)c(SCC(=O)N4CCOCC4)c3)c3c2CCNC3)CC1 (racemic) | 1850 | 190
14 | COc1ccccc1C1CCN(CC(O)Cn2nc(-c3ccc(C(F)(F)F)c(SCC(=O)N4CCOCC4)c3)c3c2CCN(C(C)=O)C3)CC1 (racemic) | 900 | 
15 | COc1ccccc1C1CCN(CC(O)Cn2nc(-c3ccc(C(F)(F)F)c(SCC(=O)N4CCOCC4)c3)c3c2CCN(C(=O)CO)C3)CC1 (racemic) | 480 | 

The next lines start with the values.

Row | IC50 [1] [nM] | IC50 [2] [nM] | SMILES
16 | 30 | 7 | CS(=O)(=O)N1CCc2c(c(-c3ccc(C(F)(F)F)c(SCC(=O)N4CC[C@H](O)C4)c3)nn2CC(O)CN2CCC(c3ccccn3)CC2)C1 (stereo partly specified)
17 | 280 | 40 | CS(=O)(=O)N1CCc2c(c(-c3ccc(C(F)(F)F)c(SCC(=O)N4CCCC4)c3)nn2CCCN2CCC(C(=O)N3CCCC3)CC2)C1
18 | 110 | 740 | CN1CCN(C(=O)CSc2cc(-c3nn(CCCN4CCC(N5CCCC5=O)CC4)c4c3CN(S(C)(=O)=O)CC4)ccc2C(F)(F)F)CC1
19 | 450 | 20 | CS(=O)(=O)N1CCc2c(c(-c3ccc(C(F)(F)F)c(SCC(=O)N4CCOCC4)c3)nn2CCCN2CCC(N3CCCC3=O)CC2)C1
20 | 340 |  | CS(=O)(=O)N1CCc2c(c(-c3ccc(C(F)(F)F)c(SCC(=O)N4CCC(CO)CC4)c3)nn2CCCN2CCC(N3CCCC3=O)CC2)C1
21 | 40 |  | CS(=O)(=O)N1CCc2c(c(-c3ccc(C(F)(F)F)c(SCCN4CCCCC4)c3)nn2CCCN2CCC(N3CCCC3=O)CC2)C1
22 | 30 | 7 | CS(=O)(=O)N1CCc2c(c(-c3ccc(C(F)(F)F)c(SCC(=O)N4CC[C@@H](O)C4)c3)nn2CC(O)CN2CCC(c3ccccn3)CC2)C1 (mixture of isomers)
23 | 160 |  | O=C(CSc1cc(-c2nn(CC(O)CN3CCC(c4ccccn4)CC3)c3c2CN(C(=O)CO)CC3)ccc1C(F)(F)F)N1CCOCC1 (racemic)
24 | 470 | 1 | CS(=O)(=O)N1CCc2c(c(-c3ccc(C(F)(F)F)c(SCC(=O)N4CCCC4)c3)nn2CC(O)CN2CCC(c3ccccn3)CC2)C1 (racemic)
25 | 190 |  | COc1ccccc1C1CCN(CC(O)Cn2nc(-c3ccc(C(F)(F)F)c(SCC(=O)N4CCOCC4)c3)c3c2CCN(S(C)(=O)=O)C3)CC1 (racemic)
26 | 380 |  | CS(=O)(=O)N1CCc2c(c(-c3ccc(C(F)(F)F)c(SCC(=O)N4CCOCC4)c3)nn2CC(O)CN2CCC(c3ccccn3)CC2)C1 (racemic)
27 | 110 |  | CC(=O)N1CCc2c(c(-c3ccc(C(F)(F)F)c(SCC(=O)N4CCCC4)c3)nn2CC(O)CN2CCC(C(C)(C)O)CC2)C1 (racemic)
28 | 80 | 180 | CC(=O)N1CCc2c(c(-c3ccc(C(F)(F)F)c(SCC(=O)N4CCCC4)c3)nn2CC(O)CN2CCC(C)CC2)C1 (racemic)
29 | 120 |  | COc1ccccc1C1CCN(CC(O)Cn2nc(-c3ccc(C(F)(F)F)c(SCC(=O)N4CCCC4)c3)c3c2CCNC3)CC1 (racemic)

From ChEMBL document CHEMBL1156275, “Thioether acetamides as P3 binding elements for tetrahydropyrido-pyrazole cathepsin S inhibitors” (Bioorg Med Chem Lett, 2010)
